Earlier results in US20180028451A1, “IMMEADIATE RELEASE ORAL TABLET” (Boehringer Ingelheim International GmbH, priority 2015, published 2018).

Details: physiological pH range of the gastro-intestinal tract between pH 1 to 7

In the case of `CCCc1nc2c(C)cc(-c3nc4ccccc4n3C)cc2n1Cc1ccc(-c2ccccc2C(=O)O)cc1` [Telmisartan, 4′-[2-n-propyl-4-methyl-6-(1-methylbenzimidazol-2-yl)-benzimidazol-1-ylmethyl]-biphenyl-2-carboxylic acid], the “solubility in aqueous systems” value is listed as “very poor solubility”.
